In patent publication US12595253B2, “Benzamides of pyrazolylamino-pyrimidinyl derivatives, and compositions and methods thereof” (LYNK PHARMACEUTICALS CO. LTD., priority 2019, dated 2026) one finds IC50 data, which are given here for 20 compounds.

Each structure is given as a SMILES string. Where a name gives a salt, the structure may show the parent alone.

Assay type in all cases: biochemical
Assay [1] has as its target T1, JAK1 (Homo sapiens, UniProt P23458).
T1 construct: purchased Carna Biosciences
Nature of the assay: JAK1 microfluidic kinase assay (Caliper EZ Reader II, FAM labeled peptide substrate). The note with it: IC50 JAK1 (5 nM) (1 m MATP), JAK1 5 nM, 1 mM ATP. How it is done:
(§1) Compounds were tested against JAK1, JAK2, JAK2V617F and TYK2. Assay Formats: JAK activity was determined in the reaction buffer 50 mM HEPES, 0.01% Brij35, 10 mM MgCl2, 2 mM DTT by a microfluidic assay. The phosphorylation of a FAM labeled peptide substrate was monitored in the Caliper EZ Reader II (Perkin Elmer). The assay condition for each batch of enzyme (Carna Biosciences) was optimized to obtain 10% conversion rate of peptide substrate. The test compounds were dissolved in DMSO to a stock concentration of 10 mM. 3-fold serially diluted compounds with top concentration of 5 μM were pre-incubated with JAK1, JAK2, JAK2V617F or TYK2 at indicated concentrations for 10 min at ambient temperature. The final DMSO concentration of assay mixture was 1%. […] The reaction was stopped by adding 50 mM EDTA. […] The percent inhibition was calculated by the following formula. % Inhibition=(Conversionmax−Conversionsample)/(Conversionmax−Conversionmin)*100 • Conversionmax means the conversion rate in the positive well without addition of compound • Conversionmin means the conversion rate in the well without addition of enzyme • Conversionsample means the conversion rate of test compounds The dose-response (percent inhibition) curve was plotted and IC50 values were determined by GraphPad software.

The target of assay [2] is T2, JAK2 (Homo sapiens, UniProt O60674).
T2 construct: purchased Carna Biosciences
Nature of the assay: JAK2 microfluidic kinase assay (Caliper EZ Reader II, FAM labeled peptide substrate). Here is the method:
as §1

In assay [3] the target is T3, JAK2V617F (Homo sapiens, UniProt O60674, V617F).
T3 construct: purchased Carna Biosciences
The assay is described as follows: JAK2V617F microfluidic kinase assay (Caliper EZ Reader II, FAM labeled peptide substrate). The note with it: JAK2V617F 2.5 nM, 1 mM ATP. Here is the method:
as §1

Where [4] appears, read: IC50 JAK2 ([…]) (1 mM ATP), 1 mM ATP.
Where [5] appears, read: IC50 JAK2 ([…]) (Km ATP), Km ATP.

T2 sequence (O60674 whole entry): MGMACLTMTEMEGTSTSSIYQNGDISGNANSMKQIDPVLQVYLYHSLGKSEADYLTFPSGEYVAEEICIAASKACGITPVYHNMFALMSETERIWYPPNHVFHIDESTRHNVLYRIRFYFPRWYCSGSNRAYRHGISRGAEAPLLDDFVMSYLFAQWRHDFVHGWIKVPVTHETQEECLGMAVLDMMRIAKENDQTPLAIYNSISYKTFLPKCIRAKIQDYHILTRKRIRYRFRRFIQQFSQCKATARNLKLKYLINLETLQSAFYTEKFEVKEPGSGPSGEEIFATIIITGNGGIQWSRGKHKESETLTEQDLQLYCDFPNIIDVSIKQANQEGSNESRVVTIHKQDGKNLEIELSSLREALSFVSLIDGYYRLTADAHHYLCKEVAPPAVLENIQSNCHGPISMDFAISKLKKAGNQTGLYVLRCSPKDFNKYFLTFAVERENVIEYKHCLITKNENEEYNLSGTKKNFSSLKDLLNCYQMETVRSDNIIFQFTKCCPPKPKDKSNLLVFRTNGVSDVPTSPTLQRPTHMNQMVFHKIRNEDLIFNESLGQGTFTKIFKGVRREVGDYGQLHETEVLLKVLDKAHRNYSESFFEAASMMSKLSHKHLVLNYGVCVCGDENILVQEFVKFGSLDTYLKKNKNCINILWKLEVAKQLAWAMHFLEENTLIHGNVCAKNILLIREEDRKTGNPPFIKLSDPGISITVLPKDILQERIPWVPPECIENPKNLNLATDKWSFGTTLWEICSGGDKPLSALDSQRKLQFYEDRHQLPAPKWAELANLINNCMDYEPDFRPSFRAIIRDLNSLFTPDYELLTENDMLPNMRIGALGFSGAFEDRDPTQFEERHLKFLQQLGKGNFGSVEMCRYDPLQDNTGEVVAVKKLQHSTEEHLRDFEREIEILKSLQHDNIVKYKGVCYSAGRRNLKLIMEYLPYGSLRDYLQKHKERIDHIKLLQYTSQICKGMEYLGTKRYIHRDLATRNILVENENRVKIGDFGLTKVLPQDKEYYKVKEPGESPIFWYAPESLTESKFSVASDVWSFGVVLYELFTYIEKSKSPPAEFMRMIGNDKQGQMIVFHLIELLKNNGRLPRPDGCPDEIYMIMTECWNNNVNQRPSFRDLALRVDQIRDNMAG
T1 sequence (P23458 whole entry): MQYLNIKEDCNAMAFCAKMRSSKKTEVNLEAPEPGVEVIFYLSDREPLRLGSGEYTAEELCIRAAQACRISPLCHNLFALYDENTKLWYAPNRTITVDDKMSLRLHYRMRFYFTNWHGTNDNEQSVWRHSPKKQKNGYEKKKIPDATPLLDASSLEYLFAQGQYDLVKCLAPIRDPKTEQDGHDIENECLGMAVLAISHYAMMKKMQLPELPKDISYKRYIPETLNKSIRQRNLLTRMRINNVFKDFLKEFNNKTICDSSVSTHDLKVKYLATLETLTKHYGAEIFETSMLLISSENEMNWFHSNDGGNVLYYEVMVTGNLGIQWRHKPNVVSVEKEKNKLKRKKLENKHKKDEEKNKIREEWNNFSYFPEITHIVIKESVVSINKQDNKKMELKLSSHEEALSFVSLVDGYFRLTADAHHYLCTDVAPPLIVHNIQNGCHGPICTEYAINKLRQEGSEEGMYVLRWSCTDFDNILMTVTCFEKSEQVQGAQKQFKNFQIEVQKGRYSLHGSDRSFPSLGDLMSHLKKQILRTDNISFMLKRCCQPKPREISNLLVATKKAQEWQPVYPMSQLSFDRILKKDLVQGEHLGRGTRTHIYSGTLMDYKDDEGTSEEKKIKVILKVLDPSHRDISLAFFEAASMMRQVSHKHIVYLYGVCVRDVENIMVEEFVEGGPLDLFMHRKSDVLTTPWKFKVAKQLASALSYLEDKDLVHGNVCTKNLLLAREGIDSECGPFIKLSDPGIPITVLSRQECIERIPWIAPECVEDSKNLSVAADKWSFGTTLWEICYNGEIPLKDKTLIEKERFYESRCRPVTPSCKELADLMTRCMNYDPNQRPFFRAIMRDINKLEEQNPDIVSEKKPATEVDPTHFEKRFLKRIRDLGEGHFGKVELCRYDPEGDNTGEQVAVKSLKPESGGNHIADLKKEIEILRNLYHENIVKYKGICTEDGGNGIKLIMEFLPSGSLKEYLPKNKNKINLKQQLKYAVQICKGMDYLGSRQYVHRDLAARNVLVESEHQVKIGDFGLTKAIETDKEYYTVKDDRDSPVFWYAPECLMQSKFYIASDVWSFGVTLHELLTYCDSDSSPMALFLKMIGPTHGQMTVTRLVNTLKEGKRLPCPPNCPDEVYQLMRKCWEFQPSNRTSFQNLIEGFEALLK
T3 sequence (O60674 whole entry V617F): as the sequence (O60674 whole entry) above, with V617F counted along it

For `Cc1cnc(Nc2cnn(C3CCN(C(=O)C(C)(C)O)CC3)c2)nc1-c1ccc(C(=O)NC(C)C#N)cc1` (stereo in doubt) [Example 52, (S)—N-(1-cyanoethyl)-4-(2-((1-(1-(2-hydroxy-2-methylpropanoyl)piperidin-4-yl)-1H-pyrazol-4-yl)amino)-5-methylpyrimidin-4-yl)benzamide], the IC50 in assay [1] turned out to be 10.7 nM; in assay [2] (setting [4]) it was 0.86 nM.

With `Cc1cnc(Nc2cnn(C)c2)nc1-c1ccc(C(=O)NCCC#N)cc1` [Example 2, N-(2-Cyanoethyl)-4-(5-methyl-2-((1-methyl-1H-pyrazol-4-yl)amino)pyrimidin-4-yl)benzamide], the figures for the IC50 in assay [1], in assay [2] (setting [4]) and in assay [2] (setting [5]) were 33.6 nM, 57.2 nM and 1.77 nM, respectively.

As to `Cc1cnc(Nc2cnn(C)c2)nc1-c1ccc(C(=O)NCC2(O)CC2)cc1` [Example 32, N-((1-Hydroxycyclopropyl)methyl)-4-(5-methyl-2-((1-methyl-1H-pyrazol-4-yl)amino)pyrimidin-4-yl)benzamide], the values for the IC50 in assay [1], in assay [2] (setting [4]) and in assay [2] (setting [5]) were 53 nM, 165 nM and 5.15 nM, respectively.

Turning to `C[C@@H](C#N)NC(=O)c1ccc(-c2nc(Nc3cnn(C4CCN(C(=O)C(C)(C)C)CC4)c3)ncc2F)cc1` [Example 57, (S)—N-(1-cyanoethyl)-4-(5-fluoro-2-((1-(1-pivaloylpiperidin-4-yl)-1H-pyrazol-4-yl)amino)pyrimidin-4-yl)benzamide], the IC50 in assay [1] worked out at 132 nM; in assay [2] (setting [4]) it was 39.1 nM.

Regarding `Cc1cnc(Nc2cnn(C3CCN(C(=O)C4(O)CC4)CC3)c2)nc1-c1ccc(C(=O)N[C@@H](C)C#N)cc1` [Example 79, (S)—N-(1-Cyanoethyl)-4-(2-((1-(1-(1-hydroxycyclopropanecarbonyl)piperidin-4=yl)-1H-pyrazol-4-yl)amino)-5-methylpyrimidin-4-yl)benzamide], in assay [3], inhibition was half-maximal at 0.44 nM (IC50).

In turn, `Cc1cnc(Nc2cnn(CC(C)(C)C#N)c2)nc1-c1ccc(C(=O)NCC(F)(F)F)cc1` [Example 81, 4-(2-((1-(2-Cyano-2-methylpropyl)-1H-pyrazol-4-yl)amino)-5-methylpyrimidin-4-yl)-N-(2,2,2-trifluoroethyl)benzamide] came in with an IC50 in assay [3] of 114 nM.

As for `Cc1cnc(Nc2cnn(C3CCNCC3)c2)nc1-c1ccc(C(=O)NCC(N)=O)cc1` [Example 82, N-(2-amino-2-oxoethyl)-4-(5-methyl-2-((1-(piperidin-4-yl)-1H-pyrazol-4-yl)amino)pyrimidin-4-yl)benzamide hydrochloride], the 50% inhibitory concentration (IC50) turned out to be 300 nM in assay [1], 202 nM in assay [2] (setting [4]) and 7.53 nM in assay [2] (setting [5]).

In the case of `Cc1cnc(Nc2cnn(C3CCN(C)CC3)c2)nc1-c1ccc(C(=O)N2CC(C#N)C2)cc1` [Example 92, 1-(4-(5-Methyl-2-((1-(1-methylpiperidin-4-yl)-1H-pyrazol-4-yl)amino)pyrimidin-4-yl)benzoyl)azetidine-3-carbonitrile], the concentration for half-maximal inhibition (IC50) was found to be 253 nM in assay [1], 114 nM in assay [2] (setting [4]) and 3.6 nM in assay [2] (setting [5]).

On to `Cc1cnc(Nc2cnn(C3CC(F)(F)C3)c2)nc1-c1ccc(C(=O)NCC#N)cc1` [Example 104, N-(cyanomethyl)-4-(2-((1-(3,3-difluorocyclobutyl)-1H-pyrazol-4-yl)amino)-5-methylpyrimidin-4-yl)benzamide], for which the IC50 in assay [1] amounted to 280 nM; in assay [2] (setting [4]), 1150 nM.

As to `Cn1cc(Nc2ncc(Cl)c(-c3ccc(C(=O)NCC4(C#N)CC4)cc3)n2)cn1` [Example 124], the results for the IC50 in assay [1] and in assay [2] (setting [4]) were 22 nM and 47.1 nM, respectively.

Turning to `N#CCNC(=O)c1ccc(-c2ccnc(Nc3cnn(C4CC4)c3)n2)cc1F` [Example 139, N-(Cyanomethyl)-4-(2-((1-cyclopropyl-1H-pyrazol-4-yl)amino)pyrimidin-4-yl)-2-fluorobenzamide], the values for the IC50 in assay [1], in assay [2] (setting [4]) and in assay [2] (setting [5]) were 291 nM, 219 nM and 5.3 nM, respectively.

For the compound `Cc1cnc(Nc2cnn(C3CCN(C(=O)C4CC4)CC3)c2)nc1-c1ccc(C(=O)N[C@@H](C)C#N)nc1` [Example 151, (S)—N-(1-cyanoethyl)-5-(2-((1-(1-(cyclopropanecarbonyl)piperidin-4-yl)-1H-pyrazol-4-yl)amino)-5-methylpyrimidin-4-yl)picolinamide], the IC50 in assay [1] came out at 72.1 nM; in assay [2] (setting [4]), 32.4 nM.

In the case of `N#CCNC(=O)c1ccc(-c2nc(Nc3cnn(C4CCN(C(=O)C5CC5)CC4)c3)ncc2C(F)(F)F)cc1` [Example 161, N-(cyanomethyl)-4-(2-((1-(1-(cyclopropanecarbonyl)piperidin-4-yl)-1H-pyrazol-4-yl)amino)-5-(trifluoromethyl)pyrimidin-4-yl)benzamide], the IC50 in assay [1] and in assay [2] (setting [4]) was above 5000 nM in each case.

Turning to `[2H]c1c([2H])c(-c2nc(Nc3cnn(C4CC4)c3)ncc2Cl)c([2H])c([2H])c1C(=O)N[C@@H](C)C#N` [Example 162, (S)-4-(5-chloro-2-((1-cyclopropyl-1H-pyrazol-4-yl)amino)pyrimidin-4-yl)-N-(1-cyanoethyl)benzamide-2,3,5,6-d4], the IC50 in assay [1] worked out at 4.61 nM; in assay [2] (setting [4]) it was 1.12 nM.

Regarding `CC1(C)CC(n2cc(Nc3ncc(Cl)c(-c4ccc(C(=O)NCC#N)cc4)n3)cn2)CC(C)(C)O1` [Example 181, 4-(5-Chloro-2-((1-(2,2,6,6-tetramethyltetrahydro-2H-pyran-4-yl)-1H-pyrazol-4-yl)amino)pyrimidin-4-yl)-N-(cyanomethyl)benzamide], the IC50 was 11.5 nM in assay [1] and below 0.25 nM in assay [2] (setting [4]).

For `COC[C@@H](C#N)NC(=O)c1ccc(-c2nc(Nc3cnn(C4CC4)c3)ncc2C)cc1` [Example 187, (R)—N-(1-Cyano-2-methoxyethyl)-4-(2-((1-cyclopropyl-1H-pyrazol-4-yl)amino)-5-methylpyrimidin-4-yl)benzamide], the IC50 in assay [1] turned out to be 5.77 nM; in assay [2] (setting [4]) it was 13.7 nM.

With `CC[C@@H](C#N)NC(=O)c1ccc(-c2nc(Nc3cnn(C4CCC(O)CC4)c3)ncc2C)cc1` (stereo partly drawn) [Example 205, (S)—N-(1-cyanopropyl)-4-(2-((1-(4-hydroxycyclohexyl)-1H-pyrazol-4-yl)amino)-5-methylpyrimidin-4-yl)benzamide], the figures for the concentration for half-maximal inhibition (IC50) in assay [1] and in assay [2] (setting [4]) were 9.06 nM and 0.52 nM, respectively.

As to `CC[C@@H](C#N)NC(=O)c1ccc(-c2nc(Nc3cnn(C)c3)ncc2C)cc1` [Example 219, (S)—N-(1-cyanopropyl)-4-(5-methyl-2-((1-methyl-1H-pyrazol-4-yl)amino)pyrimidin-4-yl)benzamide], the figures for the IC50 in assay [1] and in assay [2] (setting [4]) were 5.53 nM and 42.5 nM, respectively.

For the compound `CC[C@@H](C#N)NC(=O)c1ccc(-c2nc(Nc3cnn(C)c3)ncc2Cl)cc1` [Example 220, (S)-4-(5-chloro-2-((1-methyl-1H-pyrazol-4-yl)amino)pyrimidin-4-yl)-N-(1-cyanopropyl)benzamide], the IC50 in assay [1] was determined as 16.2 nM; in assay [2] (setting [4]) it was 70 nM.

As for `Cc1cnc(Nc2cnn(C3CC(C)(C)OC(C)(C)C3)c2)nc1-c1ccc(C(=O)N[C@@H](C)C#N)c(F)c1` [Example 224, (S)—N-(1-Cyanoethyl)-2-fluoro-4-(5-methyl-2-((1-(2,2,6,6-tetramethyltetrahydro-2H-pyran-4-yl)-1H-pyrazol-4-yl)amino)pyrimidin-4-yl)benzamide], the values for the IC50 in assay [1] and in assay [2] (setting [4]) were 98.4 nM and 0.49 nM, respectively.
